The source of these data is EP2060571A1, “Insecticide iminoheterocycles” (Bayer CropScience AG, priority 2007, dated 2009).

In series [1] the test system is Boophilus microplus. Nature of the series: Boophilus microplus test (BOOPMI injection). In kind it is in vivo. The conditions noted are these: Aufwandmenge 20 µg/Tier; injected into the abdomen; 100 % = no tick laid fertile eggs. From the text: Boophilus microplus -Test (BOOPMI Injektion)
Lösungsmittel: Dimethylsulfoxid
Zur Herstellung einer zweckmäßigen Wirkstoffzubereitung vermischt man 1 Gewichtsteil Wirkstoff mit der angegebenen Menge Lösungsmittel und verdünnt das Konzentrat mit Lösungsmittel auf die gewünschte Konzentration.
Die Wirkstofflösung wird in das Abdomen (Boophilus microplus) injiziert, die Tiere werden in Schalen überführt und in einem klimatisierten Raum aufbewahrt.
Nach der gewünschten Zeit wird die Wirkung in % bestimmt. Dabei bedeutet 100%, dass keine Zecke fertile Eier gelegt hat.

Series [2] has as its system Myzus persicae. Nature of the series: Myzus test (spray treatment). In kind it is in vivo. To be noted: Aufwandmenge 500 g/ha, Chinakohlblattscheiben (Brassica pekinensis) sprayed, 100 % = all aphids killed, read-out: Wirkung. The source says: Myzus-Test (Spritzbehandlung)
Zur Herstellung einer zweckmäßigen Wirkstoffzubereitung vermischt man 1 Gewichtsteil Wirkstoff mit den angegebenen Mengen Lösungsmittel und Emulgator und verdünnt das Konzentrat mit emulgatorhaltigem Wasser auf die gewünschte Konzentration.
Chinakohlblattscheiben (Brassica pekinensis), die von allen Stadien der Grünen Pfirsichblattlaus (Myzus persicae) befallen sind, werden mit einer Wirkstoffzubereitung der gewünschten Konzentration gespritzt.
Nach der gewünschten Zeit wird die Wirkung in % bestimmt. Dabei bedeutet 100 %, dass alle Blattläuse abgetötet wurden; 0 % bedeutet, dass keine Blattläuse abgetötet wurden.

Series [3] can be described thus: logP determination (acidic, HCOOH). Format: physicochemical.
[4] abbreviates: acidic (HCOOH), read-out: Phys. Daten = logP (HCOOH).
[5] abbreviates: hcooh, read-out: Phys. Daten = logP (HCOOH).

Like-named read-outs stand apart in the source and are kept apart here.

The term logP denotes a log measure of how a compound divides between an organic and an aqueous phase.

Take `CC(C)c1cs/c(=N\C2CCc3ccsc32)n1CCO` (stereo not shown) [I-1, 2-[(2Z)-2-(5,6-dihydro-4H-cyclopenta[b]thiophen-6-ylimino)-4-(1-methylethyl)-1,3-thiazol-3(2H)-yl]ethanol]: the Wirkung in series [1] is recorded as not below 80%. Besides, the mortality at 500 g/ha in series [2] is not below 80%. Besides, the logP in series [3] (setting [4]) turned out to be 1.19; in series [3] (sauer, read-out: logP (sauer)), 1.19.

Turning to `CC(C)c1cs/c(=N\C2CCCc3occc32)n1CCO` (stereo not shown) [I-2], in series [2], the mortality at 500 g/ha was not below 80%. The logP in series [3] (setting [4]) turned out to be 1.23; in series [3] (sauer, read-out: logP (sauer)), 1.23.

In the case of `OCCNC(=S)NC1CCc2ccsc21` (stereo not shown) [II-1, (5,6-dihydro-4H-cyclopenta[b]thiophen-6-yl)-3-(2-hydroxyethyl)thiourea], in series [2], the mortality at 500 g/ha is not below 80%. The logP turned out to be 1.47 in series [3] (setting [5]) and 1.47 in series [3] (sauer, read-out: logP (sauer)).

In the case of `OCCNC(=S)NC1CCCc2occc21` (stereo not shown) [II-2, 1-(2-hydroxyethyl)-3-(4,5,6,7-tetrahydro-1-benzofuran-4-yl)thiourea], in series [2], the mortality at 500 g/ha is not below 80%. Also, the logP in series [3] (setting [5]) is 1.4; in series [3] (sauer, read-out: logP (sauer)), 1.4.

In the case of `OCCNC(=S)NC1CCCc2sccc21` (stereo not shown) [II-3], the mortality at 500 g/ha in series [2] was not below 80%. Also, in series [3] (setting [5]), the logP turned out to be 1.7.

Regarding `C[C@H](NC(=S)NCCO)c1cccs1` [II-74], the logP in series [3] (setting [5]) was found to be 1.3.
